In patent US9790169B2, “IDO inhibitors” (BRISTOL-MYERS SQUIBB COMPANY, priority 2015, dated 2017):

These molecules were tested against human IDO1 (Homo sapiens, UniProt P14902) (assay: Assessment of human IDO-1 inhibitory activity in Hela cells (Interferon-gamma stimulated HeLa cells, Ehrlich reagent, absorbance 490 nm)). Conditions: Hela Human IDO-1 cellular assay.
Type: cell-based
Set-up: endogenous in cells; host or cells: HeLa cells stimulated with interferon-gamma
Experimental: Exemplary compounds were tested for inhibition of IDO activity.
Assessment of Human IDO-1 Inhibitory Activity in Hela Cells
HeLa cells were seeded at 20,000 cells per 30 μL per well with RPMI/phenol red free media containing 10% FBS in a 384-well tissue culture plate (black with clear bottoms). 50 nL of compound was added to cells and incubated at 37° C. for one hour. 20 μL of the recombinant human Interferon-gamma (R&D System, Cat. #285-IF, at final concentration of 10 ng/ml) or recombinant murine Interferon-gamma (PEPROTECH® Inc., Cat. #315-05, final concentration of 5 ng/ml) was added to activate IDO signaling. The cells were incubated for 18 hours in 37° C. incubator with 5% CO2.
Compound treatment was stopped by adding 5 μl trichloroacetic acid to a final concentration of 3%. Subsequently, the cell plate was further incubated at 50° C. for 30 minute. An equal volume supernatant (20 μL) and 2% (w/v) Ehrlich reagent (4-dimethylaminobenzaldehyde) in glacial acetic acid were mixed in a new clear bottom 384-well plate. This plate was incubated at room temperature for 30 minutes. Absorbance at 490 nm was measured on Envision plate reader.
Compound IC50 values were calculated using counts from unstimulated (no INF-gamma treatment) wells as 100% inhibition. INF-gamma treatment without compound treatment as 0% inhibition.

Sequence of human IDO1 (P14902 whole entry): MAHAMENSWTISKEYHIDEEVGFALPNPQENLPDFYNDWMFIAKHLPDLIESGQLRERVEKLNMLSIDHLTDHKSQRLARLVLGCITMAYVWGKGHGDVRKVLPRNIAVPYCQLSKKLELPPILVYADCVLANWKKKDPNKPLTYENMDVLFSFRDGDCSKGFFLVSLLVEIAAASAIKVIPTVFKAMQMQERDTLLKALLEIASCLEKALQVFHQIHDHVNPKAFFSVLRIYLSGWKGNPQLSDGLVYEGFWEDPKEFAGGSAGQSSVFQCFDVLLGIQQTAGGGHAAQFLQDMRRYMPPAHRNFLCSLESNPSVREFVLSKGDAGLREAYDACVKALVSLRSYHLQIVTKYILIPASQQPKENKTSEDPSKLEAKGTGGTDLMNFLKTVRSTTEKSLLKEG

SMILES | IC50 [nM]
CCOc1ncc(Nc2cc([C@H](CC)CNS(=O)(=O)c3c(C)noc3C)ccc2N(CC)C2CCOCC2)cn1 [Example 1328, (S)-N-(2-(3-((2-ethoxypyrimidin-5-yl)amino)-4-(ethyl(tetrahydro-2H-pyran-4-yl)amino)phenyl)butyl)-3,5-dimethylisoxazole-4-sulfonamide] | > 50
CCN(c1ccc([C@@H](COC)CC(=O)O)cc1Nc1cccc(OC(F)(F)C(F)F)c1)C1CCOCC1 (single isomer, unassigned) [Example 360] | > 50
CCCN(c1ccc([C@H](CC)CC(=O)O)cc1Nc1ccc(F)cc1)C1CCOCC1 (single isomer, unassigned) [Example 549] | < 5
CCOc1ncc(Nc2cc([C@@H](CC(=O)O)C(F)(F)F)ccc2N(CC)C2CCOCC2)cn1 [Example 600, (R)-3-(3-((2-Ethoxypyrimidin-5-yl)amino)-4-(ethyl(tetrahydro-2H-pyran-4-yl)amino)phenyl)-4,4,4-trifluorobutanoic acid] | < 5
COCC(CC(=O)O)c1ccc(N(C)C2CCOCC2)c(Nc2ccc(C#N)cn2)c1 (single isomer, unassigned) [Example 881, 3-(3-((5-cyanopyridin-2-yl)amino)-4-(methyl (tetrahydro-2H-pyran-4-yl)amino)phenyl)-4-methoxybutanoic acid] | > 50
CCN(c1ccc(C(CC(=O)O)C2CC2)cc1Nc1ccc(Cl)cc1)C1CCS(=O)(=O)CC1 (single isomer, unassigned) [Example 339 Enantiomer 1, 3-(3-((4-Chlorophenyl)amino)-4-((1,1-dioxidotetrahydro-2H-thiopyran-4-yl)(ethyl)amino)phenyl)-3-cyclopropylpropanoic acid] | < 5
CCNC(=O)NC[C@@H](CC)c1ccc(N(CC)C2CCOCC2)c(Nc2cnc(OCC)nc2)c1 [Example 1366, (S)-1-(2-(3-((2-Ethoxypyrimidin-5-yl)amino)-4-(ethyl(tetrahydro-2H-pyran-4-yl)amino)phenyl)butyl)-3-ethylurea] | > 50
CCC1COCCN1c1ccc([C@H](COC)CC(=O)O)cc1Nc1ccc(F)cc1 (single isomer, unassigned) [Example 1293] | > 50
CCCOc1ncc(Nc2cc(C(C)CC(=O)O)ccc2N(CC)C2CCOCC2)cn1 (single isomer, unassigned) [Example 621, 3-(4-(ethyl(tetrahydro-2H-pyran-4-yl)amino)-3-((2-propoxypyrimidin-5-yl)amino)phenyl)butanoic acid] | < 50
COCC(CC(=O)O)c1ccc(N2CCOC[C@@H]2C(C)C)c(Nc2ccc(C#N)cc2)c1 (single isomer, unassigned) [Example 929] | < 50
CCN(c1ccc(C(CC)(CC)CC(=O)O)cc1Nc1ccc(Cl)cc1)C1CCOCC1 [Example 26, 3-(3-((4-Chlorophenyl)amino)-4-(ethyl(tetrahydro-2H-pyran-4-yl)amino)phenyl)-3-ethylpentanoic acid] | < 5
CCC1COCCN1c1ccc([C@H](COC)CC(=O)O)cc1Nc1ccc(C#N)cc1 (single isomer, unassigned) [Example 1287] | > 50
CCC(CC(=O)O)c1cc(Nc2cnc(OC)nc2)c(N(CC)C2CCOCC2)cc1F (single isomer, unassigned) [Example 859, 3-(4-(ethyl (tetrahydro-2H-pyran-4-yl)amino)-2-fluoro-5-((2-methoxy-pyrimidin-5-yl)amino)phenyl) pentanoic acid] | < 5
CCOc1ncc(Nc2cc(C(COC)CC(=O)O)ccc2N(CC)C2CCS(=O)(=O)CC2)cn1 (single isomer, unassigned) [Example 171, 3-(4-((1,1-dioxidotetrahydro-2H-thiopyran-4-yl)(ethyl)amino)-3-((2-ethoxypyrimidin-5-yl)amino)phenyl)-4-methoxybutanoic acid] | > 50
CCN(c1ccc([C@H](COC(C)C)CC(=O)O)cc1Nc1ccc(C#N)cc1)C1CCOCC1 (single isomer, unassigned) [Example 329] | < 50
CCCN(c1ccc([C@@H](COC)CC(=O)O)cc1NC(=O)Nc1ccc(C#N)cc1)C1CCOCC1 (single isomer, unassigned) [Example 567] | < 50
CCN(c1ccc([C@@H](COC)CC(=O)O)cc1Nc1ccc(C#N)c(OCC(F)(F)F)c1)C1CCOCC1 (single isomer, unassigned) [Example 372] | < 50
CCN(c1cc(F)c(C(COC)CC(=O)O)cc1NC(=O)Nc1ccc(Cl)cc1F)C1CCOCC1 (single isomer, unassigned) [Example 855, 3-(5-(3-(4-Chloro-2-fluorophenyl)ureido)-4-(ethyl(tetrahydro-2H-pyran-4-yl)amino)-2-fluorophenyl)-4-methoxybutanoic acid] | < 50

SMILES | IC50 [nM]
CCC(CC(=O)O)c1ccc(N2CCN(C(=O)OC(C)(C)C)CC2)c(Nc2ccc(C#N)cc2)c1 (single isomer, unassigned) [Example 674 Enantiomer 2, 3-(4-(4-(tert-Butoxycarbonyl)piperazin-1-yl)-3-((4-cyanophenyl)amino)phenyl)pentanoic acid] | > 50
CCOc1ncc(Nc2cc(C(COC)CC(=O)O)ccc2N(C)C2CCOCC2)cn1 (single isomer, unassigned) [Example 878, 3-(3-((2-ethoxypyrimidin-5-yl)amino)-4-(methyl (tetrahydro-2H-pyran-4-yl)amino)phenyl)-4-methoxybutanoic acid] | > 50
CCOc1ncc(Nc2cc([C@H](CC)Cc3nnc[nH]3)ccc2N(CC)C2CCOCC2)cn1 [Example 1338, (R)-4-(1-(4H-1,2,4-Triazol-3-yl)butan-2-yl)-N2-(2-ethoxypyrimidin-5-yl)-N1-ethyl-N1-(tetrahydro-2H-pyran-4-yl)benzene-1,2-diamine] | < 50
CCN(c1ccc([C@@H](COC)CC(=O)O)cc1Nc1ccc(F)cc1F)C1CCOCC1 (single isomer, unassigned) [Example 365] | < 50
C[C@@H]1CN(c2ccc(C(CC(=O)O)C3CC3)cc2Nc2ccc(C#N)cc2)C[C@H](C)O1 (single isomer, unassigned) [Example 243] | < 50
CCC(CC(=O)O)c1ccc(N2CCOC(C)(C)C2)c(Nc2ccc(Cl)cc2)c1 (single isomer, unassigned) [Example 1319 E1, 3-(3-((4-Chlorophenyl)amino)-4-(2,2-dimethylmorpholino)phenyl)pentanoic acid] | < 50
CCCN(c1ccc([C@H](COC)CC(=O)O)cc1Nc1ccc(Cl)cc1)C1CCOCC1 (single isomer, unassigned) [Example 574] | < 5
CCOc1ncc(Nc2cc(C(CC)CC(C)(C)O)ccc2N2CCC(c3ccccc3)CC2)cn1 (single isomer, unassigned) [Example 1349, 4-(3-((2-Ethoxypyrimidin-5-yl)amino)-4-(4-phenylpiperidin-1-yl)phenyl)-2-methylhexan-2-ol] | > 50
CC[C@@H](CC(=O)O)c1ccc(N(CC)C2CCOCC2)c(Nc2cnc(C)nc2)c1 (single isomer, unassigned) [Example 1361] | < 5
CCC(CC(=O)O)c1ccc(N2CCOCC2)c(NC(=O)Nc2ccc(C)cc2)c1 (single isomer, unassigned) [Example 8 Enantiomer 1, 3-(4-Morpholino-3-(3-(p-tolyl)ureido)phenyl)pentanoic acid] | > 50
CCN(c1ccc([C@@H](CC(=O)O)C(F)(F)F)cc1NC(=O)Nc1ccc(Cl)cc1F)C1CCOCC1 (single isomer, unassigned) [Example 1270] | < 50
CCC(CC(=O)O)c1ccc(N2CCOC[C@H]2C(C)C)c(Nc2ccc(Cl)cc2)c1 (single isomer, unassigned) [Example 888] | < 5
CCC(CC(=O)O)c1ccc(N2CCOCC2)c(NC(=O)Nc2ccc(C)cc2)c1 (single isomer, unassigned) [Example 8 Enantiomer 2, 3-(4-Morpholino-3-(3-(p-tolyl)ureido)phenyl)pentanoic acid] | < 50
CCN(c1ccc(C(C)CC(=O)O)cc1Nc1ccc2c(c1)OC(F)(F)O2)C1CCOCC1 (single isomer, unassigned) [Example 628, 3-(3-((2,2-difluorobenzo[d] [1,3]dioxol-5-yl)amino)-4-(ethyl(tetrahydro-2H-pyran-4-yl)amino)phenyl)butanoic acid] | < 5
COCC(CC(=O)O)c1cc(F)c(N(CC(C)C)CC(C)C)c(Nc2ccc(Cl)cc2)c1 (single isomer, unassigned) [Example 920, 3-(3-((4-Chlorophenyl)amino)-4-(diisobutylamino)-5-fluorophenyl)-4-methoxybutanoic acid] | < 5
CCC1COCCN1c1ccc([C@@H](COC)CC(=O)O)cc1Nc1ccc(F)cc1 (single isomer, unassigned) [Example 1301] | > 50
COCC(CC(=O)O)c1ccc(N(CC(F)F)C2CCOCC2)c(Nc2ccc(Cl)cc2)c1 (single isomer, unassigned) [Example 321 Enantiomer 1, 3-(3-((4-Chlorophenyl)amino)-4-((2,2-difluoroethyl)(tetrahydro-2H-pyran-4-yl)amino)phenyl)-4-methoxybutanoic acid] | < 5
